Data published in US5859027A, “Antimicrobial agent” (ChekTec Corporation, priority 1997, dated 1999).
In brackets after ≈: the same amount, converted by molar mass. Where two headings read alike, the source gives them in different places.

What was measured:
[1] = tested on: Fungal cells; test: Disk diffusion assay for antimicrobial activity (Example 2), zone of growth inhibition; assay type: cell-based; settings: for zone of inhibition at 100 µg/disc: 100 μg per 6 mm disk, read-out: zone of growth inhibition, diameter; for zone of inhibition at 100 µg/disc / zone of growth inhibition, diameter: 37° C., 24 hours
Protocol: (§1) Fungal cells were grown overnight from a single colony in 2-5 ml Sabouraud Dextrose Broth at 37° C. 1-5×10^6 were spread onto Sabouraud Dextrose Agar plates (Difco, Detroit, Mich.). Sterile 6 mm filter disks were evenly spaced with at least about 22 mm separation on the plates. To each disk, 100 μg of a compound to be tested was applied in 5-10 μl DMSO. On each plate, two disks containing 2.5 and 10 μg, respectively, of Amphotericin B (Sigma) and two disks containing 2.5 and 10 μg, respectively, of cerulenin (Sigma) were used as positive controls. A disk containing only DMSO served as the negative control. The plates were incubated at 37° C. for 24 hours and the zone of growth inhibition about each disk was visually examined and measured. Compound A and compound B typically produced clear zones of 8-12 mm diameter. Amphotericin B typically produced a clear zone of 8-10 mm diameter. Cerulenin typically produced a hazy zone of 20-25 mm diameter. A clear zone is indicative of fungicidal activity, while a hazy zone is indicative of fungistatic activity.

[2] = biological target: T1, FAS from S. cereviseae (Saccharomyces cerevisiae, UniProt P07149+P19097); test: FAS inhibition assay (Example 1C); assay type: biochemical
T1 construct: an FAS extract from Saccharomyces cerviseae was prepared; (the yeast itself); host or cells: Fleishmans' freeze dried yeast (Saccharomyces cerevisiae); dialyzed ammonium sulfate precipitate of the lysate
Protocol: To test the compounds for FAS inhibitory activity, an FAS extract from Saccharomyces cerviseae was prepared. Freeze dried yeast (Fleishmans' freeze dried yeast, Specialty Brands, San Francisco, Calif.) 1 g, was hydrated in 5 mls deionized water for 15 minutes at 4° C. Subsequent extraction steps were conducted at a temperature between 4° C. and 10° C., except that in the cell lysis step the temperature may have briefly exceeded these boundaries. The cells were pelleted by centrifugation; the pelleted volume was measured; and the cells were resuspended in 5 vol. (5 mls per ml cell volume) extraction buffer [125 mM KH2PO4, pH 6.6, 1 mM EDTA, 1 mM DTT, 0.7 μg/ml pepstatin (Boehringer Mannheim, Indianapolis, Ind.), 0.2 μg/ml aprotinin (Boehringer Mannheim, Indianapolis, Ind.), 0.2 μg/ml leupeptin (Boehringer Mannheim, Indianapolis, Ind.)]. The cells were again pelleted and resuspended in 2 vol. extraction buffer. The cells were lysed using a bead mill homogenizer (Biospec Products, Bartlesville, OD) with a volume of glass beads equal to the volume of the yeast cells. The bead mill was operated five times for 1 minute, with 1 minute intervals between operations to allow the water jacket of the bead mill to cool the material in the mill. The lysate was centrifuged at 30,000×g for 30 minutes and the supernate was collected. Ammonium sulfate was added to the supernate to 50% saturation and the mixture was stirred for 30 minutes on ice. […]
105 μl of FAS extract was placed in each well of a polypropylene 96 well plate (Costar Corp. Cambridge, Mass.) and multiple 5 μl dilutions of compound A, compound B or negative control solution were introduced into each of the wells. […] The relative initial reaction rates in each well were measured by measuring the decrease in optical density at 340 nm using a UV Max microtiter plate reader (Molecular Devices, Sunnyvalle, Calif.).

[3] = tested on: Candida tropicalis (strain ATCC 13803); test: Disk diffusion assay for antimicrobial activity (Example 2); assay type: cell-based
Protocol: as §1

[4] = tested on: Candida albicans (strains ATCC 10231 and ATCC 10261); test: as above; assay type: cell-based
Protocol: as §1

[5] = tested on: Candida Albicans strain B311A; test: MIC assay (Example 1B); assay type: cell-based; settings: for MIC: Candida albicans; for activity in the MIC assay of Example 1B (in words): HPLC-purified material, strain not stated
Protocol: The fractions from the purification were tested for antifungal activity against C. albicans (strain B311A available from Dr. Paul Actor, Temple University and strains ATCC Nos. 10231 and 10261) and C. tropicalis (strain 13803). […] Prior to the assay for antifungal activity, the fungus to be tested for susceptibility was grown overnight from a single colony in 5 ml of medium at 30° C. This overnight culture was diluted 1:10 with fresh medium and grown at 37° C. for 4 hours. A volume of 5 μl of extracts, dissolved in DMSO, was added to each separate well in a series of 96-well plates. 4,000 fungal cells were then added to each plate in 95 μl of medium. The optical densities of the wells were measured and the plates incubated at 37° C. The optical densities were again measured after 24 and 48 hours. Minimum inhibitory concentrations ("MICs") for the extracts were determined using this procedure wherein the extracts were serially diluted in medium prior to mixing with the 4,000 fungal cells.

[6] = Maximal tolerated dose in mice, IP administration; settings: mouse, in vivo, read-out: maximal tolerated dose (maximum dose that caused no deaths within 72 hours)
Protocol: (§2) In vivo activity was determined using a murine systemic model of candidiasis. Groups of 5 to 10 mice were inoculated IV with 1-2×10^7 cells of C. albicans strain ATCC 10231 (10 times the lethal dose). One hour after inoculation, the candidate antifungal compounds were delivered IP. 10 mg/kg of compound A was injected into each mouse of the compound A treatment group. Two separate treatment groups received 30 and 100 mg/kg, respectively, of compound B. Amphotericin B was injected into a positive control treatment group at 10 mg/kg. All compounds were delivered in phosphate-buffered saline (PBS) and one treatment group received PBS. Twice daily thereafter the mice were observed, the number of dead mice recorded, and the dead mice removed. After nine days, the total mortality over the period was determined.
Using the same methodology, it was determined that the maximal tolerated dose in these mice (i.e., the maximum dose that caused no deaths within 72 hours following IP administration) of compound B was in excess of 200 mg/kg. The mice treated with 2108B or Amphotericin B injected IP in […] of phosphate buffered saline, pH 7.4 had the following treatment profiles: […]

[7] = tested on: C. albicans strain ATCC 10231; test: Murine systemic model of candidiasis; assay type: in vivo, mice; settings: for % Survival: after nine days
Protocol: as §2

[8] = biological target: T2, FAS of C. Albicans strain 4918 (Candida albicans, UniProt P34731+P43098); test: FAS activity in extracts of treated C. Albicans cultures (Example 10); assay type: cell-based; settings: for remaining activity at 10 µg/mL / remaining activity at 25 µg/mL: read-out: Percent Remaining FAS Activity
T2 construct: endogenous in cells; host or cells: Candida albicans strain 4918 (from Dr. Ronald Cihlar, Georgetown University Medical Center)
T2 sequence (P43098 whole entry): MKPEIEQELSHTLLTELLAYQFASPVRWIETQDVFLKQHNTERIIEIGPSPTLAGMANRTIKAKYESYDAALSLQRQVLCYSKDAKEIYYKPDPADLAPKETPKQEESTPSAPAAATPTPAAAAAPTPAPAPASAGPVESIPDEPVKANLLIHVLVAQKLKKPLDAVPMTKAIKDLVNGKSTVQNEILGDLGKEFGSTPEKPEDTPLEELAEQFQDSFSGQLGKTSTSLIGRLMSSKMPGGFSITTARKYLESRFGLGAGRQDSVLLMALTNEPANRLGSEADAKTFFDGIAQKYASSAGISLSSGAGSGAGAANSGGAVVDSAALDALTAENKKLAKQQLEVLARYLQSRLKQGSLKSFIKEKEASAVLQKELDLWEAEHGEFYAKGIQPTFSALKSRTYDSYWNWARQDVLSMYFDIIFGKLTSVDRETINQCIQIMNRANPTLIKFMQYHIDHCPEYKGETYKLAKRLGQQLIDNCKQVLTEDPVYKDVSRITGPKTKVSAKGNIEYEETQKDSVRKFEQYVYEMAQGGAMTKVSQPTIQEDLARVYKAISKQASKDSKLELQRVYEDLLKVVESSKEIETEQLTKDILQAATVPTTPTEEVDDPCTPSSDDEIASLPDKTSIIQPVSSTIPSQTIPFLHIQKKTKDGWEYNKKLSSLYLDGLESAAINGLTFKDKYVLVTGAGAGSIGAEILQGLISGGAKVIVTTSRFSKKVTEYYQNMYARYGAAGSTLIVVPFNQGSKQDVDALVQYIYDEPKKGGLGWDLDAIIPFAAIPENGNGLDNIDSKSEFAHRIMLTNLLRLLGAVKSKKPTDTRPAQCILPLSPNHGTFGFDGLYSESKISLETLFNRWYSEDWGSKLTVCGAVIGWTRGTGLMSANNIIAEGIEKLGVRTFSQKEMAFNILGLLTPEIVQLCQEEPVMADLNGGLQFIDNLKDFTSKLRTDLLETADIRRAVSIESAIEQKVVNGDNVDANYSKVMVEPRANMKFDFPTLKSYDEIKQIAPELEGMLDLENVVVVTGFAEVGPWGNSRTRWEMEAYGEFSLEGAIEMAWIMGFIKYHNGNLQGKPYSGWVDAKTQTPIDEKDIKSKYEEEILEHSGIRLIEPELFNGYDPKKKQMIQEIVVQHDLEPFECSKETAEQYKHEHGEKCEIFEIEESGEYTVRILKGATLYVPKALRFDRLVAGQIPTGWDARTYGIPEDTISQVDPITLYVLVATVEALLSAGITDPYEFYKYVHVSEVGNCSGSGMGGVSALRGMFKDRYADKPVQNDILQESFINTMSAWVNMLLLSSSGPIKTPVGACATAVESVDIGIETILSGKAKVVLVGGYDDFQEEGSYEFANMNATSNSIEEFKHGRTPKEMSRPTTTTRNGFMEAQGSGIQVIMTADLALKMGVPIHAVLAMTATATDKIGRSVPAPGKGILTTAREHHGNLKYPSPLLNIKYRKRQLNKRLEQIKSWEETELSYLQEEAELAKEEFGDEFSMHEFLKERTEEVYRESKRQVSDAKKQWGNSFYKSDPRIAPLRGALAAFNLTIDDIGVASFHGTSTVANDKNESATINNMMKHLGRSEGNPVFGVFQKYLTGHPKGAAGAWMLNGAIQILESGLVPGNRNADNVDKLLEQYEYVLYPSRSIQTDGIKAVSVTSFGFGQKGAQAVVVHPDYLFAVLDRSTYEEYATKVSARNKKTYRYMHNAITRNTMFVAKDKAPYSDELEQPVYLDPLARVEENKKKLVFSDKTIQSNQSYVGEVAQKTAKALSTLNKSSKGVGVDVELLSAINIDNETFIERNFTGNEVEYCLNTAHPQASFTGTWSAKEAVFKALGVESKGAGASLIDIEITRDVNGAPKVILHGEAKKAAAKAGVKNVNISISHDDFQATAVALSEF
T2 sequence (P34731 whole entry): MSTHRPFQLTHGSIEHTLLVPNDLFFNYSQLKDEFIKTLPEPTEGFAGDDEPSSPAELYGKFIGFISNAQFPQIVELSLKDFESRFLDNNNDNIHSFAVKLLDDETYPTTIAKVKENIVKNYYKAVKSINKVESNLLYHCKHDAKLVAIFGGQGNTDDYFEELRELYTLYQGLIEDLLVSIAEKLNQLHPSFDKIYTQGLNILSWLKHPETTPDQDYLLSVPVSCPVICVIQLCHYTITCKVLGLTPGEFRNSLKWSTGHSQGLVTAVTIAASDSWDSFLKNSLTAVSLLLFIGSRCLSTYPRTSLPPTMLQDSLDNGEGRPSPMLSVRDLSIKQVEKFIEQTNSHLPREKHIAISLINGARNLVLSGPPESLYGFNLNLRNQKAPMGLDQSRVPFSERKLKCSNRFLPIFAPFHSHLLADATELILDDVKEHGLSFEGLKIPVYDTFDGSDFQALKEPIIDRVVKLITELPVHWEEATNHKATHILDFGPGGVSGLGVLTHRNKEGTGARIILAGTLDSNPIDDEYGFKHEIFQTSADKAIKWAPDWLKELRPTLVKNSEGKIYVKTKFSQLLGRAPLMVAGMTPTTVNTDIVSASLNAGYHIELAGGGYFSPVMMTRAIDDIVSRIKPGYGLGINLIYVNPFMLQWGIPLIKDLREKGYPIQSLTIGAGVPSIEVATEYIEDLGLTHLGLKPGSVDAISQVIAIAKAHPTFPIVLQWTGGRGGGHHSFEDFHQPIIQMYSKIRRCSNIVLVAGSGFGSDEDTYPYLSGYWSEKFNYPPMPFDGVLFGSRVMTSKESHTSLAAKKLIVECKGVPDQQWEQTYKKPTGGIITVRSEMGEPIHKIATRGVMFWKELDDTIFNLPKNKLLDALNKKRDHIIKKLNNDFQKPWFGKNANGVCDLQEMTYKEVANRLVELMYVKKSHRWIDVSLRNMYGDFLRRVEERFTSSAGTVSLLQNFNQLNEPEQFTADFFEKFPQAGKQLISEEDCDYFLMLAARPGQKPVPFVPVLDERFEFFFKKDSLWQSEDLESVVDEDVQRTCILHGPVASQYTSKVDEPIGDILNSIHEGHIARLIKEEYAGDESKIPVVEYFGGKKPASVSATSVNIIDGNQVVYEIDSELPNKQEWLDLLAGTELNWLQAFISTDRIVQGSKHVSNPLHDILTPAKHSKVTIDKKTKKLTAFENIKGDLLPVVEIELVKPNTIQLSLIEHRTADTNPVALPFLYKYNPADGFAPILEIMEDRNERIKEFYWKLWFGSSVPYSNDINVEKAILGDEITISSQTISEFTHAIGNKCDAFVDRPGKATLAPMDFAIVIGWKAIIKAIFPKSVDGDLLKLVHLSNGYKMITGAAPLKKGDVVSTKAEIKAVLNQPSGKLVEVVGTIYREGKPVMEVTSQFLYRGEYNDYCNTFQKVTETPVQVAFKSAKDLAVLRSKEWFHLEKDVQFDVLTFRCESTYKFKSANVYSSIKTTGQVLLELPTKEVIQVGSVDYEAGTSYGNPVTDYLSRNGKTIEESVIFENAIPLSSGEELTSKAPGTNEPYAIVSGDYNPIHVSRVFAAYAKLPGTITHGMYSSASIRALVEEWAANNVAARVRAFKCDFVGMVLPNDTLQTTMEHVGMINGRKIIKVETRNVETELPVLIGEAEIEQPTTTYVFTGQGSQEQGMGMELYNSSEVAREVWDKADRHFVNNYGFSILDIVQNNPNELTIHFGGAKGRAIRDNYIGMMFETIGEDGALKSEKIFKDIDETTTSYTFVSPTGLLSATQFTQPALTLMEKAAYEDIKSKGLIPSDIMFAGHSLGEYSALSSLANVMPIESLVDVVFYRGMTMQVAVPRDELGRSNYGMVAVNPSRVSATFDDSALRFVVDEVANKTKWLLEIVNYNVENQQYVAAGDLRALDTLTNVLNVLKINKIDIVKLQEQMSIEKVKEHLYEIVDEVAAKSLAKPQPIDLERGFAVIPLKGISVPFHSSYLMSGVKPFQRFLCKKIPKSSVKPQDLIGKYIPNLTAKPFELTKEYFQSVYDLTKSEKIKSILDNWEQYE
Protocol: C. Albicans strain 4918 (available from Dr. Ronald Cihlar, Georgetown University Medical Center, Washington, D.C.) was grown in minimal medium (M63 media available from Difco, Detroit, Mich.) at 37° C. to mid-log phase. 10 μg/ml cerulenin and 25 μg/ml of compound B were added to separate cultures. At 15 minute intervals, 20 ml samples were removed and extracts prepared by mechanical extraction as in Example 1C, except that the ammonium sulfate precipitation step was not applied. The extract was diluted to 1 ml to form a solution containing 0.4M potassium phosphate, pH 7.3, 0.125 μM dithiothreitol, 50 μM acetyl-CoA, 100 μM NADPH. After incubation at 37° C. for 5 minutes, 100 μM malonyl-CoA containing 0.5 μCi [2-^14 C]-malonyl-CoA (Amersham, Arlington Heights, Ill.). After 10 minutes at 37° C., the fatty acid synthesis reaction was terminated by adding 30 μl of 60% perchloric acid (v/v) and 1 ml ethanol. Four volumes of pet. ether were added to each reaction incubation to extract the fatty acids. The relative incorporation of malonyl-CoA into fatty acids was determined by liquid scintillation counting.

[9] = Sabouraud Dextrose Broth substituted for YNB medium
[10] = 10 mg/kg IP one hour after inoculation
[11] = positive control disks with 2.5 and 10 μg

## C/C=C/C=C/C=C/C1=CC2=CC(=O)C(C)(OC(=O)CC(C)O)C(=O)C23OC3O1 (centres unmarked) [Compound A]
[1]
  zone of inhibition at 100 µg/disc: 8 to 12 mm
[1]; 100 μg per disk
  zone appearance (clear = fungicidal, hazy = fungistatic): clear zones
[2]
  FAS inhibition in the in vitro enzyme inhibition assay (in words): retained activity
  IC50: 414 µM
[3]
  antimicrobial activity (in words): had antimicrobial activity
[4]
  antimicrobial activity (in words): had antimicrobial activity
[5]; [9]
  MIC: 50 µg/mL (≈ 129 µM)
[5]; YNB medium
  MIC: 25 µg/mL (≈ 64.7 µM)
[5]
  activity in the MIC assay of Example 1B (in words): retained activity
[6]
  MTD at 72 h: 10 mg/kg
[7]; 10 mg/kg IP
  Deaths Each Day Post Inoculation, day 0: 0
  Deaths Each Day Post Inoculation, day 1: 0
  Deaths Each Day Post Inoculation, day 2: 2
  Deaths Each Day Post Inoculation, day 3: 3
  Deaths Each Day Post Inoculation, day 4: 0
  Deaths Each Day Post Inoculation, day 5: 0
  Deaths Each Day Post Inoculation, day 6: 0
  Deaths Each Day Post Inoculation, day 7: 0
  Deaths Each Day Post Inoculation, day 8: 0
  Deaths Each Day Post Inoculation, day 9: 0
[7]; [10]
  % Survival: 0%

## C/C=C/C=C/C=C/C1=CC2=CC(=O)C(C)(OC(=O)CC(O)CC(C)O)C(=O)C23OC3O1 (centres unmarked) [patulodin, reference compound]
[1]
  zone of inhibition at 100 µg/disc: 7 mm
[5]; YNB medium
  MIC: > 100 µg/mL

## C[C@@H]1[C@H](O)[C@@H](C)/C=C/C=C/C=C/C=C/C=C/C=C/C=C/[C@H](O[C@@H]2O[C@H](C)[C@@H](O)[C@H](N)[C@@H]2O)C[C@@H]2O[C@](O)(C[C@@H](O)C[C@@H](O)[C@H](O)CC[C@@H](O)C[C@@H](O)CC(=O)O[C@H]1C)C[C@H](O)[C@H]2C(=O)O [Amphotericin B, reference compound]
[1]; [11]
  zone appearance (clear = fungicidal, hazy = fungistatic): clear zone
  zone of growth inhibition, diameter: 8-10 mm
[7]; 10 mg/kg IP
  Deaths Each Day Post Inoculation, day 0: 0
  Deaths Each Day Post Inoculation, day 1: 0
  Deaths Each Day Post Inoculation, day 3: 0
  Deaths Each Day Post Inoculation, day 5: 0
  Deaths Each Day Post Inoculation, day 6: 0
  Deaths Each Day Post Inoculation, day 7: 0
  Deaths Each Day Post Inoculation, day 8: 0
  Deaths Each Day Post Inoculation, day 9: 0
[7]; [10]
  % Survival: 80%

## C/C=C/C/C=C/CCC(=O)[C@H]1O[C@H]1C(N)=O [Cerulenin, cerulenin, reference compound]
[1]; [11]
  zone appearance (clear = fungicidal, hazy = fungistatic): hazy zone
  zone of growth inhibition, diameter: 20-25 mm
[8]; 0.25 h
  remaining activity at 10 µg/mL: 20%
[8]; 0.5 h
  remaining activity at 10 µg/mL: 12%

## C/C=C/C=C/C=C/C1=CC2=CC(=O)C(C)(OC(=O)CC(C)O)C(=O)C2=CO1 (centres unmarked) [Compound B]
[1]
  zone of inhibition at 100 µg/disc: 8 to 12 mm
[1]; 100 μg per disk
  zone appearance (clear = fungicidal, hazy = fungistatic): clear zones
[2]
  FAS inhibition in the in vitro enzyme inhibition assay (in words): not directly inhibitory of FAS
[3]
  antimicrobial activity (in words): had antimicrobial activity
[4]
  antimicrobial activity (in words): had antimicrobial activity
[5]; [9]
  MIC: 50 µg/mL (≈ 135 µM)
[5]; YNB medium
  MIC: 6.25 µg/mL (≈ 16.9 µM)
[5]
  activity in the MIC assay of Example 1B (in words): retained activity
[6]
  MTD at 72 h: > 200 mg/kg
[7]; 30 mg/kg IP
  Deaths Each Day Post Inoculation, day 0: 0
  Deaths Each Day Post Inoculation, day 1: 2
  Deaths Each Day Post Inoculation, day 2: 1
  Deaths Each Day Post Inoculation, day 3: 0
  Deaths Each Day Post Inoculation, day 4: 0
  Deaths Each Day Post Inoculation, day 5: 0
  Deaths Each Day Post Inoculation, day 6: 0
  Deaths Each Day Post Inoculation, day 7: 0
  Deaths Each Day Post Inoculation, day 8: 0
  Deaths Each Day Post Inoculation, day 9: 0
[7]; 30 mg/kg IP one hour after inoculation
  % Survival: 40%
[7]; 100 mg/kg IP
  Deaths Each Day Post Inoculation, day 0: 0
  Deaths Each Day Post Inoculation, day 1: 2
  Deaths Each Day Post Inoculation, day 2: 0
  Deaths Each Day Post Inoculation, day 3: 0
  Deaths Each Day Post Inoculation, day 4: 0
  Deaths Each Day Post Inoculation, day 5: 0
  Deaths Each Day Post Inoculation, day 6: 0
  Deaths Each Day Post Inoculation, day 7: 0
  Deaths Each Day Post Inoculation, day 8: 1
  Deaths Each Day Post Inoculation, day 9: 0
[7]; 100 mg/kg IP one hour after inoculation
  % Survival: 40%
[8]
  FAS activity of cell extracts made after exposure (in words): markedly reduced FAS activity
[8]; 0.25 h
  remaining activity at 25 µg/mL: 53%
[8]; 0.5 h
  remaining activity at 25 µg/mL: 40%
[8]; 0.75 h
  remaining activity at 25 µg/mL: 35%
[8]; 1 h
  remaining activity at 25 µg/mL: 22%
